Measured values as given in patent US9730937B2, “RAF kinase modulator compounds and methods of use thereof” (AMBIT BIOSCIENCES CORPORATION, priority 2008, dated 2017).
Structures can show the parent of a compound that is named as a salt. Where two headings read alike, the source gives them in different places.

Tests used:
[1] = system: panel of 290 distinct kinases (321 in the larger panel), excluding mutant variants; settings: kinase selectivity score, class symbols
Experimental: The liganded beads were blocked with excess biotin and washed with blocking buffer (SeaBlock (Pierce), 1% BSA, 0.05% Tween 20, 1 mM DTT) to remove unbound ligand and to reduce non-specific binding. […] Test compounds were prepared as 100× stocks in DMSO and rapidly diluted into the aqueous environment. DMSO was added to control assays lacking a test compound. Primary screen interactions were performed in polypropylene 384-well plates in a final volume of 34 μL, while Kd determinations were performed in polystyrene 96-well plates in a final volume of 135 μL. […] The kinase concentration in the eluates was measured by quantitative PCR. Each kinase was tested individually against each compound. KdS were determined using eleven serial threefold dilutions. A selectivity score, which is a quantitative measure of selectivity of a compound against a panel of enzymes, may be calculated for a compound by dividing the number of enzymes for which a compound meets a set criteria, (for example, a binding constant of 100 nM or less), by the total number of enzymes tested. […] (Note, for those compounds tested in a larger kinase panel, as indicated by an asterisk (*) next to the S35 score, the divisor is 321 (i.e. the larger panel contains 321 distinct kinases, excluding mutant variants.)).

mutant BRAF kinase = mutant BRAF kinase (Homo sapiens (Human), UniProt P15056, V600E); settings: read-out: BRAF V600E Kd, class symbols
Sequence of mutant BRAF kinase (P15056 whole entry V600E): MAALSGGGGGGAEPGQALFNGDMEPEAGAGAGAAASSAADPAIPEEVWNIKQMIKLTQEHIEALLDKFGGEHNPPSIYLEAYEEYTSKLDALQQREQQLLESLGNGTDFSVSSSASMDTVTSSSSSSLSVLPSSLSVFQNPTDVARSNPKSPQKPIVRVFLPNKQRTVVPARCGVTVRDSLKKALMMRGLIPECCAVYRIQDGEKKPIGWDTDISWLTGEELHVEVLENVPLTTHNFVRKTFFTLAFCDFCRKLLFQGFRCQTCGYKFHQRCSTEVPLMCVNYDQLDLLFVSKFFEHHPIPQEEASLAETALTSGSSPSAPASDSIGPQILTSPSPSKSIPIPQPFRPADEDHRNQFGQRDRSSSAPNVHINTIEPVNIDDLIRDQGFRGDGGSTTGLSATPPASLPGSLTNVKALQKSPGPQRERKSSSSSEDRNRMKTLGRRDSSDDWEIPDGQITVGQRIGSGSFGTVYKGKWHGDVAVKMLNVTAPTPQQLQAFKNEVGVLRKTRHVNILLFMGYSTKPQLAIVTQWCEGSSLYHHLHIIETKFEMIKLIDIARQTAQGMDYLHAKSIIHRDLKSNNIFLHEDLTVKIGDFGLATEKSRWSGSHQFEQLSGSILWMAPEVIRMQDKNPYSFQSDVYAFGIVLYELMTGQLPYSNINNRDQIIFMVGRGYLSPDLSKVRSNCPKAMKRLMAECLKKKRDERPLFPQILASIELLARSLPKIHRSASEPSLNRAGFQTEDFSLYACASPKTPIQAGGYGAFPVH

[2] = value marked * (larger kinase panel)

## COCCOc1cc2ncnc(Sc3cccc(NC(=O)Nc4cc(C(C)(C)C)on4)c3)c2cc1OCCOC [Ex 53, 1-{3-[6,7-bis(2-methoxyethoxy)quinazolin-4-ylthio]phenyl}-3-(5-tert-butylisoxazol-3-yl)urea hydrochloride]
[1]; 290 distinct kinases
  S35: C (0.20 < C ≦ 0.40)
Mutant BRAF kinase
  Kd: < 250 nM

## COc1cc2ncnc(Sc3cccc(NC(=O)Nc4cc(C(C)(C)C)on4)c3)c2cc1OCCN1CCC(CO)CC1 [Ex 66, 1-(5-tert-butylisoxazol-3-yl)-3-(3-(6-(2-(4-(hydroxymethyl)piperidin-1-yl)ethoxy)-7-methoxyquinazolin-4-ylthio)phenyl)urea]
[1]; 290 distinct kinases
  S35: C (0.20 < C ≦ 0.40)
Mutant BRAF kinase
  Kd: < 250 nM

## COc1cc2ncnc(Oc3cccc(NC(=O)Nc4cc(C(C)(C)C)on4)c3)c2cc1OCCCN1CCN(S(C)(=O)=O)CC1 [Ex 25, 1-(5-tert-butylisoxazol-3-yl)-3-(3-(7-methoxy-6-(3-(4-(methylsulfonyl)piperazin-1-yl)propoxy)quinazolin-4-yloxy)phenyl)urea]
[1]; 290 distinct kinases
  S35: D (D > 0.40)
Mutant BRAF kinase
  Kd: < 250 nM

## COc1cc2c(Oc3cccc(NC(=O)Nc4cc(C(C)(C)C)on4)c3)ncnc2cc1O [Ex 95, 1-(5-tert-butylisoxazol-3-yl)-3-(3-(7-hydroxy-6-methoxyquinazolin-4-yloxy)phenyl)urea]
[1]; 290 distinct kinases
  S35: C (0.20 < C ≦ 0.40)
Mutant BRAF kinase
  Kd: < 250 nM

## COc1cc2c(Oc3cccc(NC(=O)Nc4cc(C(C)(C)C)on4)c3)ncnc2cc1OCCN1CCN(CCO)CC1 [Ex 38, 1-(5-tert-butylisoxazol-3-yl)-3-(3-(7-(2-(4-(2-hydroxyethyl)piperazin-1-yl)ethoxy)-6-methoxyquinazolin-4-yloxy)phenyl)urea]
[1]; 290 distinct kinases
  S35: D (D > 0.40)
Mutant BRAF kinase
  Kd: < 250 nM

## COc1cc2ncnc(Oc3cccc(NC(=O)Nc4cc(C(F)(F)F)ncn4)c3)c2cc1OC [Ex 146, 1-(3-(6,7-dimethoxyquinazolin-4-yloxy)phenyl)-3-(6-(trifluoromethyl)pyrimidin-4-yl)urea]
[1]; [2]
  S35: B* (0.10 < B ≦ 0.20)
Mutant BRAF kinase
  Kd: < 250 nM

## COc1cc2c(Sc3cccc(NC(=O)Nc4cc(C(C)(C)C)on4)c3)ncnc2cc1OCCCN1CCN(CCO)CC1 [Ex 75, 1-(5-tert-butylisoxazol-3-yl)-3-(3-(7-(3-(4-(2-hydroxyethyl)piperazin-1-yl)propoxy)-6-methoxyquinazolin-4-ylthio)phenyl)urea]
[1]; 290 distinct kinases
  S35: D (D > 0.40)
Mutant BRAF kinase
  Kd: < 250 nM

## COCCOc1cc2ncnc(Oc3cccc(NC(=O)Nc4cc(C(C)(C)C)no4)c3)c2cc1OC [Ex 202, 1-(3-tert-butylisoxazol-5-yl)-3-(3-(6-methoxy-7-(2-methoxyethoxy)quinazolin-4-yloxy)phenyl)urea]
[1]; 290 distinct kinases
  S35: C (0.20 < C ≦ 0.40)
Mutant BRAF kinase
  Kd: < 250 nM

## CC(C)(C)c1cc(NC(=O)Nc2cccc(Oc3ncnc4cc5c(cc34)OCCO5)c2)no1 [Ex 14, 1-(5-tert-butylisoxazol-3-yl)-3-[3-(7,8-dihydro-[1,4]dioxino[2,3-g]quinazolin-4-yloxy)phenyl]urea hydrochloride]
[1]; 290 distinct kinases
  S35: C (0.20 < C ≦ 0.40)
Mutant BRAF kinase
  Kd: < 250 nM

## COc1cc2ncnc(Sc3cccc(NC(=O)Nc4cc(C(C)(C)C)on4)c3)c2cc1OCCN1CCN(S(C)(=O)=O)CC1 [Ex 69, 1-(5-tert-butylisoxazol-3-yl)-3-(3-(7-methoxy-6-(2-(4-(methylsulfonyl)piperazin-1-yl)ethoxy)quinazolin-4-ylthio)phenyl)urea]
[1]; 290 distinct kinases
  S35: C (0.20 < C ≦ 0.40)
Mutant BRAF kinase
  Kd: < 250 nM

## COc1cc2ncnc(Sc3cccc(NC(=O)Nc4cc(C(C)(C)C)on4)c3)c2cc1OCCN1CCN(CCO)CC1 [Ex 68, 1-(5-tert-butylisoxazol-3-yl)-3-(3-(6-(2-(4-(2-hydroxyethyl)piperazin-1-yl)ethoxy)-7-methoxyquinazolin-4-ylthio)phenyl)urea]
[1]; 290 distinct kinases
  S35: C (0.20 < C ≦ 0.40)
Mutant BRAF kinase
  Kd: < 250 nM

## COCCOc1cc2ncnc(Oc3cccc(NC(=O)Nc4cc(C(C)(C)C)on4)c3)c2cc1OC [Ex 7, 1-(5-tert-Butylisoxazol-3-yl)-3-{3-[6-methoxy-7-(2-methoxyethoxy)quinazolin-4-yloxy]phenyl}urea hydrochloride]
[1]; 290 distinct kinases
  S35: D (D > 0.40)
Mutant BRAF kinase
  Kd: < 250 nM

## COc1cc2c(Sc3cccc(NC(=O)Nc4cc(C(C)(C)C)on4)c3)ncnc2cc1OCCCN1CCCCC1 [Ex 76, 1-(5-tert-butylisoxazol-3-yl)-3-(3-(6-methoxy-7-(3-(piperidin-1-yl)propoxy)quinazolin-4-ylthio)phenyl)urea]
[1]; 290 distinct kinases
  S35: D (D > 0.40)
Mutant BRAF kinase
  Kd: < 250 nM

## COCCOc1cc2c(Sc3cccc(NC(=O)Nc4cc(C(C)(C)C)on4)c3)ncnc2cc1OC [Ex 45, 1-(5-tert-butylisoxazol-3-yl)-3-(3-(7-methoxy-6-(2-methoxyethoxy)quinazolin-4-ylthio)phenyl)urea]
[1]; 290 distinct kinases
  S35: C (0.20 < C ≦ 0.40)
Mutant BRAF kinase
  Kd: < 250 nM

## COc1cc2ncnc(Oc3cccc(NC(=O)Nc4cc(C(C)(F)F)no4)c3)c2cc1OC [Ex 152, 1-(3-(1,1-difluoroethyl)isoxazol-5-yl)-3-(3-(6,7-dimethoxyquinazolin-4-yloxy)phenyl)urea]
[1]; [2]
  S35: C* (0.20 < C ≦ 0.40)
Mutant BRAF kinase
  Kd: < 250 nM

## COc1cc2ncnc(Oc3cccc(NC(=O)Nc4cc(C(C)(C)C)on4)c3)c2cc1OCCN1CCOCC1 [Ex 20, 1-(5-tert-butylisoxazol-3-yl)-3-(3-(7-methoxy-6-(2-morpholinoethoxy)quinazolin-4-yloxy)phenyl)urea]
[1]; 290 distinct kinases
  S35: C (0.20 < C ≦ 0.40)
Mutant BRAF kinase
  Kd: < 250 nM

## CC(C)(C)c1cc(NC(=O)Nc2cccc(Oc3ncnc4ccc(-c5ccc(CNCCS(C)(=O)=O)o5)cc34)c2)no1 [Ex 92, 1-(5-tert-butylisoxazol-3-yl)-3-{3-[6-(5-{[2-(methylsulfonyl)ethylamino]methyl}furan-2-yl)quinazolin-4-yloxy]phenyl}urea]
[1]; 290 distinct kinases
  S35: C (0.20 < C ≦ 0.40)
Mutant BRAF kinase
  Kd: < 250 nM

## COc1cc2c(Sc3cccc(NC(=O)Nc4cc(C(C)(C)C)on4)c3)ncnc2cc1OCCCN1CCN(S(C)(=O)=O)CC1 [Ex 77, 1-(5-tert-butylisoxazol-3-yl)-3-(3-(6-methoxy-7-(3-(4-(methylsulfonyl)piperazin-1-yl)propoxy)quinazolin-4-ylthio)phenyl)urea]
[1]; 290 distinct kinases
  S35: D (D > 0.40)
Mutant BRAF kinase
  Kd: < 250 nM

## COc1cc2ncnc(Oc3cccc(NC(=O)Nc4cc(C(C)(C)C)on4)c3)c2cc1OC[C@H](O)CN1CCN(C)CC1 [Ex 112, (R)-1-(5-tert-butylisoxazol-3-yl)-3-(3-(6-(2-hydroxy-3-(4methylpiperazin-1-yl)propoxy)-7-methoxyquinazolin-4-yloxy)phenyl)urea]
[1]; 290 distinct kinases
  S35: D (D > 0.40)
Mutant BRAF kinase
  Kd: < 250 nM

## COc1cc2ncnc(Sc3cccc(NC(=O)Nc4cc(C(C)(C)C)on4)c3)c2cc1OCCCN1CCC(CO)CC1 [Ex 58, 1-(5-tert-butylisoxazol-3-yl)-3-(3-(6-(3-(4-(hydroxymethyl)piperidin-1-yl)propoxy)-7-methoxyquinazolin-4-ylthio)phenyl)urea]
[1]; 290 distinct kinases
  S35: D (D > 0.40)
Mutant BRAF kinase
  Kd: < 250 nM

## COc1cccc(NC(=O)Nc2cccc(Oc3ncnc4cc(OC)c(OC)cc34)c2)c1 [Ex 178, 1-(3-(6,7-dimethoxyquinazolin-4-yloxy)phenyl)-3-(3-methoxyphenyl)urea]
[1]; [2]
  S35: B* (0.10 < B ≦ 0.20)
Mutant BRAF kinase
  Kd: < 250 nM

## COCCOc1cc2ncnc(Oc3cccc(NC(=O)Nc4cccc(C(C)(C)C)c4)c3)c2cc1OC [Ex 119, 1-(3-tert-butylphenyl)-3-(3-(6-methoxy-7-(2-methoxyethoxy)quinazolin-4-yloxy)phenyl)urea]
[1]; [2]
  S35: C* (0.20 < C ≦ 0.40)
Mutant BRAF kinase
  Kd: < 250 nM

## COc1cc2ncnc(Oc3cccc(NC(=O)Nc4ccc(C(C)(C)C)cc4)c3)c2cc1OC [Ex 173, 1-(4-tert-butylphenyl)-3-(3-(6,7-dimethoxyquinazolin-4-yloxy)phenyl)urea]
[1]; 290 distinct kinases
  S35: C (0.20 < C ≦ 0.40)
Mutant BRAF kinase
  Kd: < 250 nM

## COc1cc2c(Oc3cccc(NC(=O)Nc4cc(C(C)(C)C)on4)c3)ncnc2cc1OCCN1CCC(CO)CC1 [Ex 37, 1-(5-tert-butyl-isoxazol-3-yl)-3-(3-{7-[2-(4-hydroxymethyl-piperidin-1-yl)-ethoxy]-6-methoxy-quinazolin-4-yloxy}-phenyl)-urea]
[1]; 290 distinct kinases
  S35: C (0.20 < C ≦ 0.40)
Mutant BRAF kinase
  Kd: < 250 nM

## COc1cc2ncnc(Sc3cccc(NC(=O)Nc4cc(C(C)(C)C)on4)c3)c2cc1OC [Ex 46, 1-(5-tert-butylisoxazol-3-yl)-3-(3-(6,7-dimethoxyquinazolin-4-ylthio)phenyl)urea]
[1]; 290 distinct kinases
  S35: C (0.20 < C ≦ 0.40)
Mutant BRAF kinase
  Kd: < 250 nM

## COc1cc2ncnc(Oc3cccc(NC(=O)Nc4ccc(Cl)c(C(F)(F)F)c4)c3)c2cc1OC [Ex 176, 1-(4-chloro-3-(trifluoromethyl)phenyl)-3-(3-(6,7-dimethoxyquinazolin-4-yloxy)phenyl)urea]
[1]; 290 distinct kinases
  S35: C (0.20 < C ≦ 0.40)
Mutant BRAF kinase
  Kd: < 250 nM

## COc1cc2ncnc(Sc3cccc(NC(=O)Nc4cc(C(C)(C)C)nn4C)c3)c2cc1OC [Ex 157, 1-(3-tert-butyl-1-methyl-1H-pyrazol-5-yl)-3-(3-(6,7-dimethoxyquinazolin-4-ylthio)phenyl)urea]
[1]; [2]
  S35: C* (0.20 < C ≦ 0.40)
Mutant BRAF kinase
  Kd: < 250 nM

## COc1cc2c(Oc3cccc(NC(=O)Nc4cc(C(C)(C)C)on4)c3)ncnc2cc1OCCCN1CCC(CO)CC1 [Ex 29]
[1]; 290 distinct kinases
  S35: D (D > 0.40)
Mutant BRAF kinase
  Kd: < 250 nM

## COc1cc2c(Oc3cccc(NC(=O)Nc4cc(C(C)(C)C)on4)c3)ncnc2cc1OCCCN1CCC(O)C1 (stereo not drawn) [Ex 31, 1-(5-tert-butyl-isoxazol-3-yl)-3-(3-{7-[3-(3-hydroxy-pyrrolidin-1-yl)-propoxy]-6-methoxy-quinazolin-4-yloxy}-phenyl)-urea]
[1]; 290 distinct kinases
  S35: D (D > 0.40)
Mutant BRAF kinase
  Kd: < 250 nM

## COc1cc2ncnc(Oc3cccc(NC(=O)Nc4cc(C(C)(C)C)on4)c3)c2cc1OCCCN1CCC(CO)CC1 [Ex 24, 1-(5-tert-butylisoxazol-3-yl)-3-(3-(6-(3-(4-(hydroxymethyl)piperidin-1-yl)propoxy)-7-methoxyquinazolin-4-yloxy)phenyl)urea]
[1]; 290 distinct kinases
  S35: D (D > 0.40)
Mutant BRAF kinase
  Kd: < 250 nM
